PMC7894426, “Influence of verapamil on the pharmacokinetics of rotundic acid in rats and its potential mechanism” (Pharmaceutical Biology, 2021)
Read-outs that look alike come from different tables or passages of the source.

Tests used:
CYP2D6 = target: T1, CYP2D6 (Homo sapiens, UniProt P10635); assay: Metabolic depletion of RA by rhCYP2D6; assay type: in vitro ADME; conditions: rhCYP2D6 25 pM, RA 2 µM, 30 min
T1 construct: purchased Research Institute for Liver Disease (Shanghai) Co., Ltd
Protocol: (§1) The metabolic stability of RA was evaluated against five rhCYPs (1A2, 2C8, 2C9, 2D6 and 3A4). Incubation was taken place in 0.1 M sodium phosphate buffer (pH 7.4) containing 5 mM MgCl2, 1 mM NADPH, and 25 pM rhCYP enzyme protein at 37 °C in a total volume of 1 mL. After pre-incubated for 5 min, the reactions were started by the addition of RA methanol solution (final concentration of 2 µM). Aliquots of 50 µL incubation solution were collected from the reaction at 0, 5, 10, 20 and 30 min, and quenched with 50 µL ice-cold methanol (containing 0.5% formic acid) and 100 µL ice-cold acetonitrile containing IS (10 ng/mL). The heat-inactivated rhCYP3A4 were used as negative controls. All reactions were conducted in triplicate, followed by LC-MS/MS analysis. Results presented in percentage of drug remaining in incubation starting at 100% at time zero.

CYP2C9 = target: T2, CYP2C9 (Homo sapiens, UniProt P11712); assay: Metabolic depletion of RA by rhCYP2C9; assay type: in vitro ADME; conditions: rhCYP2C9 25 pM, RA 2 µM, 30 min
T2 construct: purchased Research Institute for Liver Disease (Shanghai) Co., Ltd
Protocol: as §1

MDCKII-MDR1 cells = assay: MTS cell-proliferation assay; assay type: cell-based, canine; conditions: 25 µM RA
P-gp = P-gp (Homo sapiens, UniProt P08183); assay: Bidirectional transport across MDCKII-MDR1 cell monolayers (P-gp substrate assessment); conditions: dog, MDCK-MDR1, pH 7.4
Protocol: MDCKII-Mock and MDCKII-MDR1 cells were given as a gift by Fuji Biomedix Co., Ltd. (Japan) and cultured in DMEM supplemented with 10% FBS and 1% antibiotic (10,000 U/mL penicillin and 10 mg/mL streptomycin). Caco-2 cell line, the human epithelial cell used in this assay, was purchased from the Cell Bank of the Chinese Academy of Sciences (Shanghai, China) and maintained between 30 and 45 passages. It was cultured according to the previous report (Guo et al. [2018]; Xiang et al. [2020]). Briefly, the Caco-2 cells were cultured in DMEM supplemented with 10% FBS, 1% NEAA, and 1% antibiotic (10,000 U/mL penicillin and 10 mg/mL streptomycin). All cells were maintained in a 5% CO2 atmosphere and 90% relative humidity at 37 °C.
For transport studies, the MDCKII-Mock, MDCKII-MDR1, and Caco-2 cells were seeded at a density of 2 × 10^5 cells/mL on Costar Transwell inserts (1.12 cm^2 surface, polycarbonate, 12 mm diameter, 0.4 µm pore size). MDCKII-Mock and MDCKII-MDR1 cells were cultured for 5–7 days in medium, for the first four days, the medium was replaced freshly every two days, and then daily. The Caco-2 cells were cultured for 19–21 days in the medium. For the first 2 weeks, the medium was replaced freshly every two days, and then daily. […] The transepithelial electrical resistance (TEER) of the monolayer cells was measured by Millcell ERS-2 (Millipore, USA), and only the monolayer with TEER exceeding 150 Ω·m^2 (MDCKII-Mock and MDCKII-MDR1 cells) and 400 Ω·m^2 (Caco-2 cells) were used for the transport experiment. The membrane integrity and transport function of MDCKII-Mock, MDCKII-MDR1, and Caco-2 cell monolayers were further verified with Lucifer yellow and Rhodamine-123. The qualified monolayers were used for transport studies.
Before the transport studies, the media in both chambers of the transwell were replaced by warm (37 °C) Hank’s balanced salt solution (HBSS), and then the MDCKII-Mock, MDCKII-MDR1, and Caco-2 cell monolayers were incubated at 37 °C and 5% CO2 for 20 min. […] Our transport studies included absorptive direction transport from the apical (AP) side to the basolateral (BL) side and secretory direction transport from the BL side to the AP side. […] After administration, the transwell plate was placed in a thermostatic oscillator shaking at 60 rpm and 37 °C. At 10, 20, 40 and 60 min, respectively, 50 µL incubating sample aliquot was collected from the receiver chamber and immediately replaced by the same volume of fresh HBSS (37 °C). In addition, the membrane integrity of MDCKII-Mock, MDCKII-MDR1, and Caco-2 cell monolayers were evaluated with Lucifer yellow (30 µM) and TEER value, and the efflux activity of P-gp was validated using a typical P-gp substrate rhodamine-123 (10 µM).
The parameters Papp, RE, and NRE were calculated using the following equation: Papp=(ΔQ/Δt)×[1/(A×C0)]

[1] = rats, oral administration; ref Nan et al. [2016]; cited from earlier work
[2] = In vivo pharmacokinetic study of oral rotundic acid with or without verapamil pre-treatment; set-up: species or system Sprague–Dawley rats; conditions: rats, RA 10 mg/kg oral; for AUC(0-inf) / CL/F / Cmax / Vd/F / half-life / AUC(0-t) / Tmax: male, Sprague-Dawley, rat, plasma, po, 10 mg/kg; for AUC(0-t): read-out: AUC0–24
Protocol: Male Sprague–Dawley rats (180–220 g) were purchased from SiPeiFu (Beijing) Biotechnology Co., Ltd. (Beijing, China). Rats were housed in a breeding room at stable temperature (22 ± 3 °C), humidity (55 ± 10%), and under non-pathogenic conditions. All animals were placed under the above conditions and acclimatized to the facilities for one week, then fasted for 12 h with water ad libitum before the experiments. The protocols involving experimental animals were carried out by the guidelines of the Animal Ethical Committee of Tianjin Institute of Pharmaceutical Research (Tianjin, China).
To evaluate the influence of verapamil on the in vivo pharmacokinetics of RA, the male Sprague–Dawley rats were randomly divided into three groups (n = 6), including a control group and two pre-treatment groups. The pre-treatment groups received verapamil orally by gavage at a dose of 25 and 50 mg/kg (dissolved in 5% gum arabicin at a concentration of 5 and 10 mg/mL, respectively) separately for 15 min before the administration of RA at a dose of 10 mg/kg (dissolved in 5% gum arabicin at a concentration of 2 mg/mL). The dose of verapamil selected was equated to the human maximum recommended daily dose of 240–480 mg for a 60 kg person following allometric conversion (US Food and Drug Administration [2005]; Cao et al. [2007]). The control group received equal amounts of the vehicle (5% gum arabicin) before the oral administration of RA. Whole blood samples (200 µL) were collected from the orbital venous plexus at 0.0833, 0.25, 0.5, 1, 1.5, 2, 3, 4, 6, 8, 10 and 24 h after oral administration. All samples were transferred into heparinized tubes and then centrifuged for 5 min at 12,000 rpm and 4 °C immediately. The supernatants of separated plasma samples were harvested and stored at −20 °C until LC-MS/MS analysis.
RA was extracted from the sample using a simple protein precipitation method with a 3-fold volume of an organic solvent consisting of methanol-acetonitrile (1:2, v/v). Briefly, a 50 µL aliquot of plasma sample was thawed at room temperature and was then precipitated by 50 µL of methanol and 100 µL of acetonitrile containing IS (10 ng/mL). The sample was mixed uniformly for 1 min, and then centrifuged for 10 min at 12,000 rpm and 4 °C. Subsequently, 10 µL supernatants were injected into the LC-MS/MS system for analysis.
The separation and mass spectrometric analysis of the RA was achieved on a Waters ACQUITY^TM Ultra Performance LC system coupled with a Tandem Quadrupole (TQ) Detector equipped with an electrospray ionization (ESI) source. Chromatographic separation was performed at 40 °C with an ACQUITYUPLC BEH C8 column (1.7 µm, 2.1 × 50 mm, Waters Corp., USA). The mobile phase consisted of methanol-acetonitrile (50:50, v/v, mobile phase A), and 5 mM ammonium formate-methanol (90:10, v/v, mobile phase B). While the gradient elution procedure was employed for the separation of analytes at a flow rate of 0.3 mL/min. The optimized gradient elution program was as follows: 0 min 60% B, 3 min 10% B, 4 min 10% B, and 5 min 60% B. The injection volume was 10 µL at an autosampler temperature of 6 °C. The analytical run time for each sample was 5.0 min. The HPLC elution was injected into waste for the first 1.2 min, into the MS detector for the next 1 min, and back into waste for the remaining run time. RA and IS were monitored with the mass spectrometer by negative ESI source mode. The ionization source parameters were set as follows: 2.5 kV, 30 V, 120 °C, 350 °C, 50 L/h, and 650 L/h for capillary voltage, cone voltage, source temperature, desolvation temperature, cone gas, and desolvation gas, respectively. The optimal collision energy was operated at 30 V for RA and 20 V for IS. Argon was used as the collision gas. Samples were analyzed by multiple reaction monitoring (MRM) of the transitions of m/z 487.3 → 469.3 for RA and m/z 256.0 → 227.0 for IS, respectively. The dwell time was set at 0.2 s per transition. Data were acquired by MassLynx 4.1 software. […]

MDCKII-Mock cells = assay: MTS cell-proliferation assay; assay type: cell-based, canine; conditions: 25 µM RA
[3] = pre-treatment of verapamil 25 mg/kg
[4] = pre-treatment of verapamil 50 mg/kg

P-gp, sequence (P08183 whole entry): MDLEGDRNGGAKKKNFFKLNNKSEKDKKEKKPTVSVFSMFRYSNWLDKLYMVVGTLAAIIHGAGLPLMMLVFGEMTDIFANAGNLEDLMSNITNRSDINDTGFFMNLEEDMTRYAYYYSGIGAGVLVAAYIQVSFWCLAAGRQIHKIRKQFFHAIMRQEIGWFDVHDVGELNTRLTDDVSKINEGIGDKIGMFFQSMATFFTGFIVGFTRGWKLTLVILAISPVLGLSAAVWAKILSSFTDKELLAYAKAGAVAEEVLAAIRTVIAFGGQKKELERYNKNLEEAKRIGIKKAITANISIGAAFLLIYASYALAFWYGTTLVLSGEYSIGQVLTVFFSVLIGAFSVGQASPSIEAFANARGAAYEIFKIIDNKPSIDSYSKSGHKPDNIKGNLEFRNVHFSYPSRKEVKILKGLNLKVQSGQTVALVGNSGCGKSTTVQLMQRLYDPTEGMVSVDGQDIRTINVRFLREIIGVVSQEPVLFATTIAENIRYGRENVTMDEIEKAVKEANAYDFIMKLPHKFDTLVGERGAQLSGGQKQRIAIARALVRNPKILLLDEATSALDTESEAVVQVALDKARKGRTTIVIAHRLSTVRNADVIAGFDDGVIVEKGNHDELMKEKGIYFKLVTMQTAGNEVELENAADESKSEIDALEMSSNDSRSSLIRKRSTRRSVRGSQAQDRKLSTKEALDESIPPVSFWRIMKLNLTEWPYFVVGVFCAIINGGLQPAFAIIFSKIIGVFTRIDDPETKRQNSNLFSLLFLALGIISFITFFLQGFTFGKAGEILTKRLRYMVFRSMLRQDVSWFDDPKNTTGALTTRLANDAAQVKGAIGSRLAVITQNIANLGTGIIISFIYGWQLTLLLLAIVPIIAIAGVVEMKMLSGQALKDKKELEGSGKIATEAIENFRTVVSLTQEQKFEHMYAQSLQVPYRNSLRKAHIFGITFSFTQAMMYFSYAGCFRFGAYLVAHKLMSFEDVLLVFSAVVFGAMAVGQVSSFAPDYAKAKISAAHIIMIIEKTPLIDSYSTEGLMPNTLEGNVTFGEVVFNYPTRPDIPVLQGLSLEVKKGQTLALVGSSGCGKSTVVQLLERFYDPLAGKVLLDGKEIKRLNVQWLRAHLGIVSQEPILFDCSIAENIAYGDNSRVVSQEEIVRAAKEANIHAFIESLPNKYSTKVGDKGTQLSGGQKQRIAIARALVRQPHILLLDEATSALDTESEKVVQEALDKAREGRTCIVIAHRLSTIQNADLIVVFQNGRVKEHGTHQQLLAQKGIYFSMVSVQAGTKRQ
T1 sequence (P10635 whole entry): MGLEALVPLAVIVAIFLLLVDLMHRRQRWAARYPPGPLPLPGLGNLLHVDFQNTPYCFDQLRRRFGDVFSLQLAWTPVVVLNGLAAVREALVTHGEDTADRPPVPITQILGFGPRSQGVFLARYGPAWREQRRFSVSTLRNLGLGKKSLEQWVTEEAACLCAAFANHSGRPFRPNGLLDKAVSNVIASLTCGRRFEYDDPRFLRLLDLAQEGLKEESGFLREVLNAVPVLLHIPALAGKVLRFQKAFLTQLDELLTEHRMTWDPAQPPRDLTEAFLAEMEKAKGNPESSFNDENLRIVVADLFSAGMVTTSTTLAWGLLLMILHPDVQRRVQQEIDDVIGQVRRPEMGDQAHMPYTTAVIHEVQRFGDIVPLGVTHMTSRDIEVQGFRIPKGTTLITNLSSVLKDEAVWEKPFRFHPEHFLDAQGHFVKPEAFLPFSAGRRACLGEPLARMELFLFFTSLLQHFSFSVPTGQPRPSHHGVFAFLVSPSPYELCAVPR
T2 sequence (P11712 whole entry): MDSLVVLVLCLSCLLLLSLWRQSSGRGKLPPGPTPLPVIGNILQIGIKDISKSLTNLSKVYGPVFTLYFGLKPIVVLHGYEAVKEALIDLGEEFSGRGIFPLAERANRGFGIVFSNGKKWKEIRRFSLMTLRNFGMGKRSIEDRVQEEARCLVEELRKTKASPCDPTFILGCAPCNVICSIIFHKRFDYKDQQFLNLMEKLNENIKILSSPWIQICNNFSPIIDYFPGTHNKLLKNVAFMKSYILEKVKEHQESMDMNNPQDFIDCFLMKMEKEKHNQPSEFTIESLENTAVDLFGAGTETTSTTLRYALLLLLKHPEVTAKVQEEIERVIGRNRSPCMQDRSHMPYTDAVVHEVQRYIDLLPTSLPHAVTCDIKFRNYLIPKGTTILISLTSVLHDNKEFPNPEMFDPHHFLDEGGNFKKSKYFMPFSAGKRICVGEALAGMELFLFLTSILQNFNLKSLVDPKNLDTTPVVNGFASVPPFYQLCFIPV

In the case of C[C@@H]1CC[C@]2(C(=O)O)CC[C@]3(C)C(=CC[C@@H]4[C@@]5(C)CC[C@H](O)[C@@](C)(CO)[C@@H]5CC[C@]43C)[C@@H]2[C@]1(C)O [RA, Rotundic acid], the RA converted (CYP2D6) is reported as less than 30%, the RA converted (CYP2C9) is reported as 41.4% and the “effect on cell proliferation (MTS)” value (MDCKII-MDR1 cells) is reported as “did not influence the cell proliferation”. It also gave a Papp A→B at 20 min (P-gp) of 4.22 ± 0.611 ×10⁻⁶ cm/s, a Papp B→A at 20 min (P-gp) of 12.1 ± 1.55 ×10⁻⁶ cm/s and an efflux ratio at 20 min (P-gp) of 2.87. The oral bioavailability [1] was 4.52%, the AUC(0-inf) ([2]; control (vehicle)) was 432 ± 64.2 ng·h/mL and the CL/F ([2]; control (vehicle)) was 393 mL/min/kg. The Cmax ([2]; control (vehicle)) was 108 ± 10.5 ng/mL, the Vd/F ([2]; control (vehicle)) was 64.6 ± 22.6 L/kg and the half-life ([2]; control (vehicle)) was roughly 2 h. For the same compound, the AUC(0-t) ([2]; control (vehicle)) was 405 ± 68.2 ng·h/mL, the Tmax ([2]; control (vehicle), read-out: Tmax) was 0.292 ± 0.228 h and the AUC(0-inf) [2, 3] was 539 ± 53.6 ng·h/mL. It also gave a CL/F [2, 3] of 312 mL/min/kg, a Cmax [2, 3] of 117 ± 14.9 ng/mL and a Vd/F [2, 3] of 66.7 ± 21.1 L/kg. The half-life [2, 3] was 2.44 ± 0.572 h, the AUC(0-t) [2, 3] was 496 ± 63 ng·h/mL and the Tmax ([2]; pre-treatment of verapamil 25 mg/kg, read-out: Tmax) was 0.625 ± 0.306 h. It also gave an AUC(0-inf) [2, 4] of 836 ± 116 ng·h/mL, a CL/F [2, 4] of 203 mL/min/kg and a Cmax [2, 4] of 219 ± 36.8 ng/mL. The Vd/F [2, 4] was 41.3 ± 12.3 L/kg, the half-life [2, 4] was 2.31 ± 0.404 h and the AUC(0-t) [2, 4] was 782 ± 115 ng·h/mL. The Tmax ([2]; pre-treatment of verapamil 50 mg/kg, read-out: Tmax) was 1.17 ± 0.516 h, the Tmax ([2]; without verapamil, read-out: time to peak plasma concentration (converted)) was roughly 0.25 h and the t1/2 ([2]; control (vehicle)) was 1.85 ± 0.390 h. The “effect on cell proliferation (MTS)” value (MDCKII-Mock cells) was “did not influence the cell proliferation”.
